Assay results taken from US20080261911A1, “Uses of diphenyl/diphenylamine carboxylic acids” (priority 2006, published 2008).
Marks after values point to notes of the source that are not given here.

Legend:
[1] = test system: VEGF promoter constructs pVEGF1 and pVEGF2; experiment: VEGF promoter (pVEGF1/pVEGF2) luciferase transactivation in L3.6pl cells; format: cell-based, human; conditions: 50 μM
Method: Cells were transfected with pVEGF1 or pVEGF2 treated with DMSO, 50 μM ampiroxicam, tolfenamic acid, or diclofenac sodium, and luciferase activity determined. […] Panc-1 cells were transfected with pVEGF2, treated with 20, 40, 60 or 80 μM ampiroxicam or tolfenamic acid, and luciferase determined. […] Cells are cultured in 6-well plates in 2 ml of DME/F12 medium supplemented with 5% fetal bovine serum.

[2] = test system: Bic-1 esophageal cancer cells; experiment: Western blot of Sp and Sp-dependent proteins in BIC-1 esophageal cancer cells; format: cell-based; conditions: Bic-1 cells, 25-100 μM
Method: Cells are washed once with phosphate buffered saline PBS and collected by scraping in 200 μL of lysis buffer [50 mM HEPES, 0.5M sodium chloride, 1.5 mM magnesium chloride, 1 mM EGTA, 10% (v/v) glycerol, 1% Triton X-100, 5 μL/ml of Protease Inhibitor Cocktail (Sigma)]. The lysates from the cells are incubated on ice for 1 hr with intermittent vortexing followed by centrifugation at 40,000 g for 10 min at 4° C. Equal amounts of protein (60 μg) from each treatment group are diluted with loading buffer, boiled and loaded onto 10 and 12.5% SDS-polyacrylamide gel. For vascular endothelial growth factor immunoblots, 100 μg of protein are used. Samples are electrophoresed, transferred to membranes, and proteins detected by incubation with polyclonal primary antibodies Sp1, Sp3, Sp4, HDAC, VEGF (a-20), c-Met, surviving, VEGF, cleaved PARP, and β-tubulin (H-235) followed by blotting with appropriate horseradish peroxidase-conjugated secondary antibody as previously described (Abdelrahim et al, 2004). After autoradiography, band intensities are determined by a scanning laser densitometer (Sharp Electronics Corporation, Mahwah, N.J.) using ZERO-D SCANALYTICS software (Scanalytics Corporation, Billerica, Mass.).

VEGF protein = VEGF protein expression in Panc-1 cells, Western blot; format: cell-based; conditions: 50 μM, 48 hr, compared to DMSO
[3] = test system: Sp protein interactions with VEGFR1 promoter sequences; experiment: Gel mobility shift of Panc-1 nuclear extracts with VEGFR1 32P and GC/SP 32P; format: cell-based; conditions: nuclear extracts of Panc-1 cells treated with 50 μM for 48 h
Method: The specific Sp protein bands and antibody supershifted complexes are indicated with arrows.
Vascular endothelial growth factor and VEGFR1 oligonucleotides are synthesized and annealed, and 5 pmol aliquots are 5′-end-labeled using T4 kinase and [y-^32P]ATP. After the reaction sample was incubated 20 min on ice, and antibodies against Sp1, Sp3, and Sp4 proteins are added and incubated another 20 min on ice.
FIGS. 16A and 16B compare the gel mobility shift and antibody supershift patterns of nuclear extracts from Panc-1 cells bound to the proximal region of the VEGFR1 promoter containing both GC-rich and Egr-1 sites (VEGFR1^32P) or GC-rich sites alone (GC/SP^32P).

L3.6pl cells = experiment: Cell proliferation assay, L3.6pl cells; format: cell-based, human
Method: FIGS. 7A-7D compares effects of tolfenamic acid and ampiroxicam on pancreatic cancer cell proliferation. […] Panc1, Panc28 and L3.6pl cells are seeded in DMEM/F12 media with 5% FBS and treated the next day with either vehicle (DMSO) or with the indicated compounds' concentrations. Cells are counted at the indicated times using a Z1™ COULTER COUNTER® cell counter. Each experiment is carried out in triplicate and results expressed as means ±SD for each determination.

[4] = test system: SEG-1 esophageal cancer cells; experiment: Cell proliferation assay, SEG-1 esophageal cancer cells; format: cell-based; set-up: dose or concentration left out as unconfirmed; conditions: DMSO control
VEGFR1 mRNA = VEGFR1 mRNA in L3.6pl cells, semi-quantitative RT-PCR; format: cell-based, human; conditions: 50 μM, 24 h
[5] = test system: Bic-1 esophageal cancer cells; experiment: Cell proliferation assay, BIC-1 esophageal cancer cells; format: cell-based; set-up: dose or concentration left out as unconfirmed; conditions: tolfenamic acid, DMSO control
[6] = test system: orthotopically implanted human pancreatic L3.6p1 cancer cells; experiment: Orthotopic pancreatic tumor model in athymic nude mice; conditions: for Body Weight Median / Incidence Liver metastasis / Pancreatic Tumor Incidence (positive mice/mice injected) / Tumor Volume Median / Tumor Weight Median: thrice weekly oral from day 7, sacrificed day 35
Method: Median tumor volumes (FIG. 8A) and weights (FIG. 8B) in athymic nude mice treated orthotopically with L3.6pl cells, and corn oil (control), tolfenamic acid (25 and 50 mg/kg), and gemcitabine (50 mg/kg) were determined. […] Tumors from the various treatment groups were analyzed for Sp1, Sp3, Sp4, and VEGF protein expression by Western blot analysis. […] Immunostaining is shown for VEGF (FIG. 8D), and CD31 (FIG. 8E). Pancreatic tumor sections from animals treated with solvent (control), gemcitabine (50 mg/kg) and tolfenamic acid (25 and 50 mg/kg) were immunostained with VEGF and CD31 antibodies.
Male athymic nude mice (NCI-nu) are purchased from the Animal Production Area of the National Cancer Institute Frederick Cancer Research and Development Center, housed and maintained under specific pathogen-free conditions in accordance with current regulations and standards of the United States Department of Agriculture. Injection of L3.6pl cells (with greater than 90% viability is performed as previously described (Bruns et al, 1999). Seven days after implantation of tumor cells into the pancreas of each mouse, five mice are killed to confirm the presence of tumor lesions.
Mice (10 animals per treatment group) are randomized to receive one of the following treatments: (1) thrice weekly oral administrations of vehicle solution which will serve as a control group; (2) thrice weekly oral administrations of at least three non-steroidal anti-inflammatory drugs at doses of 10, 25, and 50 mg/kg/day; (3) twice weekly intraperitoneal injections of 50, 75, and 100 mg/kg/day gemcitabine alone; and (4) combinations of gemcitabine and non-steroidal anti-inflammatory drugs. Mice are sacrificed on day 35 and body weights measured. Primary tumors in the pancreas are excised, measured, weighed. For immunohistochemistry (IHC) and hematoxylin and eosin (H&E) staining procedures, one part of the tumor tissue is fixed in formalin and embedded in paraffin, and another part is embedded in TISSUE-TEK® O.C.T. compound, rapidly frozen in liquid nitrogen, and stored at −70° C. Visible liver metastases are counted with the aid of a dissecting microscope, and the tissues processed for hematoxylin and eosin staining.
Paraffin-embedded tissues are used for identification of Sp proteins, VEGFR2p27 and vascular endothelial growth factor. Tissue sections ([…] thick) are mounted on positively charged SUPERFROST slides (Fischer Scientific, Co, Houston, Tex.) and dried overnight. Sections are deparaffinized in xylene and treated with a graded series of alcohol [100, 95, and 80% ethanol (v/v) in double distilled H2O] and rehydrated in phosphate buffered saline (pH 7.5). Tissues are treated with pepsin (Biomeda) for 15 min at 37° C. and washed with phosphate buffered saline. A positive reaction is visualized by incubating the slides with stable 3,3′-diaminobenzidine for 10-20 min. Sections are rinsed with distilled water, counterstained with Gill's hematoxylin for 1 min, and mounted with UNIVERSAL MOUNT (Research Genetics). […] Tumor sample lysates are also examined by western blot analysis for the same proteins.
The potential anti-tumorigenic and anti-angiogenic activity of tolfenamic acid against pancreatic tumors was investigated in an orthotopic athymic nude mouse model. L3.6pl cells were used for this study based on their aggressive growth and production of liver metastases (Bruns et al, 1999; Dubois et al, 1998).

[7] = tolfenamic acid 50 mg/kg, p < 0.005 vs controls

## Cc1c(Cl)cccc1Nc1ccccc1C(=O)O [tolfenamic acid]
[1]
  luciferase activity, pVEGF1 and pVEGF2 constructs: results similar to those observed in Panc-1 cells
[2]
  apoptosis as shown by PARP cleavage: induced apoptosis
  expression of Sp-dependent proteins VEGF, survivin, and c-Met: decreased expression of Sp-dependent proteins vascular endothelial growth factor (VEGF), survivin, and c-Met
  protein expression of Sp1, Sp3, and Sp4: decreased protein expression of Sp1, Sp3, and Sp4
VEGF protein
  decrease of vascular endothelial growth factor expression (protein): greater than 60%
[3]
  Sp1, Sp3, and Sp4-DNA retarded band intensity with VEGFR1 32P and GC/SP 32P: retarded band intensity was markedly decreased
L3.6pl cells
  potency as inhibitor of pancreatic cell growth relative to ampiroxicam: more potent as an inhibitor of pancreatic cell growth than ampiroxicam
L3.6pl cells; 25-100 μM, 6 days
  cell growth: significantly (p<0.05) inhibited cell growth
[4]
  growth of SEG-1 esophageal cancer cells: inhibits growth
VEGFR1 mRNA
  VEGFR1 mRNA levels: decreased VEGFR1 mRNA levels
[5]
  growth of BIC-1 esophageal cancer cells: inhibits growth
[6]; 25 or 50 mg/kg/d
  median tumor weights and volumes: decreased median tumor weights and volumes
  percent incidence of liver metastasis: decreased the percent incidence of liver metastasis
[6]; at comparable doses
  tumor growth inhibition compared with gemcitabine: more effective than gemcitabine as a tumor growth inhibitor
[6]; compared to tumors from vehicle (corn oil) or gemcitabine-treated animals
  CD31 staining (microvessel density) in tumors: decreased staining
[6]; tolfenamic acid 25 mg/kg
  Body Weight Median: 25 g
  Incidence Liver metastasis: 1/10
  Pancreatic Tumor Incidence (positive mice/mice injected): 10/10
  Tumor Volume Median: 1732.8 mm^3
  Tumor Weight Median: 1.2 g
[6]; tolfenamic acid 50 mg/kg
  Body Weight Median: 24 g
  Incidence Liver metastasis: 1/10
  Pancreatic Tumor Incidence (positive mice/mice injected): 10/10
[6]; [7]
  Tumor Volume Median: 348.8^c mm^3
  Tumor Weight Median: 0.4^c g
[6]; tolfenamic acid 25 and 50 mg/kg
  immunostaining for vascular endothelial growth factor in tumor sections: decreased staining
[6]; tolfenamic acid 25 and 50 mg/kg, gemcitabine 50 mg/kg and solvent as comparison
  VEGFR1 staining of tumor tissue: decreased VEGFR1 expression only in tumors from tolfenamic acid-treated mice
[6]; tolfenamic acid versus corn oil control-treated animals
  expression of Sp1, Sp3, Sp4 and vascular endothelial growth factor in pancreatic tumors, Western blot: significantly decreased expression of Sp1, Sp3, Sp4 and vascular endothelial growth factor
